Source: publication PMC3856094, “Identification of Novel Small Molecules as Inhibitors of Hepatitis C Virus by Structure-Based Virtual Screening” (International Journal of Molecular Sciences, 2013)
Values joined by “and” are separate entries in the source; they are usually repeats but may differ in a detail not shown here. Equal entries are not always repeated.

Key:
[1] = parameters: method as in SPECS; conditions: values provided by vendor; ref SPECS; cited from earlier work
[2] = parameters: method as in SPECS; conditions: values provided by vendor; ref SPECS; cited from earlier work; remark: listed apart in the source
[3] = cell cytotoxicity assay (MTT); assay type: cell-based; conditions: human, 50% cytotoxicity concentration, Huh7 (NS3-5B) cells
Description: To determine if the compounds were cytotoxic to Huh7 (NS3-5B) cells, the cells (1 × 10^4 cells per well) were plated on 96-well microtiter plates and were incubated at 37 °C in 5% CO2 overnight. Various concentrations of the compounds were added to the wells. 48 h later, 10 μL of MTT (M2128, Sigma, Shanghai, China) were added to each well and incubated at 37 °C for 4 h. One-hundred microliters of MTT buffer (10% SDS + 5% isobutyl alcohol + 10 mmol/L HCl) were added overnight, and the optical density readings were measured by colorimeter at 580 and 680 nm.

[4] = test system: HCV replicon, Huh7 (NS3-5B) cells; experiment: cell-based HCV replicon assay (luciferase); parameters: species or system Hepatitis C virus genotype 1b; conditions: for IC50: genotype 1b, Huh7 (NS3-5B) cells, 48 h incubation, luciferase readout; for SI (selectivity index): ratio of CC50/IC50
Description: Huh7 (NS3-5B) cells correspond to a stable cell line transfected with HCV NS3-5B genotype 1b. The cells were seeded (1 × 10^4 cells per well) in Dulbecco’s Modified Eagle Medium (DMEM) supplemented with 10% fetal bovine serum, 2 mM glutamine, penicillin (100 IU/mL)/streptomycin (100 μg/mL), 1× nonessential amino acids and 0.5 mg/mL G418 in 96-well plates overnight. Compounds were diluted and added to each well. Each concentration was measured in duplicate. After 48 h of incubation, 100 μL of Steady-Glo Luciferase buffer (E2550, Promega, Beijing, China) was added to each well and shaken for 10 min, and the results were read on plate reader (ENVISION, PerkinElmer, Shanghai, China). The IC50 values were calculated by fitting with the parameter of the Hill equation.

HCV NS3/4A protease = biological target: T1, HCV NS3/4A protease (Hepatitis C virus genotype 1b, UniProt O92972); experiment: HCV NS3/4A protease assay (SensoLyte 490 kit); conditions: inhibition percentage at 50 μM in biochemical protease assay, mean of duplicate wells
T1 construct: HCV NS3/4A protease diluent (10 ng, 10 μL); purchased AnaSpec 71126 (assay kit)
T1 sequence (O92972 1658-1711): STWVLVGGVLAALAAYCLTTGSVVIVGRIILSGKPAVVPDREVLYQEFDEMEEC
T1 sequence (O92972 1027-1657): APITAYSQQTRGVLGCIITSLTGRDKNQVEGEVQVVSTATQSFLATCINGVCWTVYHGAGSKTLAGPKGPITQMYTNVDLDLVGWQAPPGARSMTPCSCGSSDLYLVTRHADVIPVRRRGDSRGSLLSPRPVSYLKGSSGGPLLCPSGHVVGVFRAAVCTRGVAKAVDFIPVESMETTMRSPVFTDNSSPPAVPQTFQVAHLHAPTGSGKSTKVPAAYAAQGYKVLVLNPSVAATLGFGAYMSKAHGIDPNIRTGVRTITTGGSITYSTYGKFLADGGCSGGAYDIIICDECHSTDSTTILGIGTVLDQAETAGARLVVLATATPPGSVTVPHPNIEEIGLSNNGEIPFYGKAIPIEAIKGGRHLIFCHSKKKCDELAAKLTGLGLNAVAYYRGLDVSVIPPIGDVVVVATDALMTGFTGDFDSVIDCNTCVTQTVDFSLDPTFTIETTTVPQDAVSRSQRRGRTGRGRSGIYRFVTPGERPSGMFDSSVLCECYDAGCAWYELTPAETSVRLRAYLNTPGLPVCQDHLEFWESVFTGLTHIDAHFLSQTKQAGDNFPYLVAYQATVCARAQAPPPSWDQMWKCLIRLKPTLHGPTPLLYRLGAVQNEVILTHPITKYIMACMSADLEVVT
Description: A SensoLyte® 490 HCV Protease Assay Kit (AnaSpec, Cat#71126) was used for screening HCV protease inhibitors. The test compounds (100 nL of 200× final concentration, prepared by the ECHO liquid handler (ECHO, Labcyte, CA, USA)) and HCV NS3/4A protease diluent (10 ng, 10 μL) were added into a 384-well black microplate (Corning #3573). The known HCV NS3/4A protease inhibitor (Ac-DEDif-EchaC, AnaSpec Cat#25346) was used as a control. The plate was incubated at room temperature for enzymatic reaction for 10 min. In the meantime, the HCV NS3/4A protease substrate solution was also incubated at the same temperature. The reaction was initiated by adding 10 μL of HCV NS3/4A protease substrate. The reagents were completely mixed by shaking the plate gently for 30–60 s. For the kinetic reading, the fluorescence intensity at Ex/Em = 340 nm/490 nm was immediately measured, and the data was recorded every 2 min for 30 min.

In the case of O=C(N/N=C/c1ccc(O)cc1O)c1[nH]nc2c1CCCC2 [Compound 1], the LogP [1] is listed as 0.27, the LogS [2] is listed as −3.01 and the CC50 at 48 h [3] is listed as 0.46 µM. The IC50 ([4]; Hepatitis C virus, Huh-7, 48 h) was 4.69 µM, the “SI (selectivity index)” value [4] was 0.10 and the inhibition at 50 µM (HCV NS3/4A protease) was 96.7%.
For O=C(NC(C(=O)N/N=C/c1ccc(O)cc1O)c1n[nH]c(=O)c2ccccc12)c1ccccc1 (stereo not shown) [Compound 2], the LogP [1] is given as 1.95, the LogS [2] is given as −3.90 and the CC50 at 48 h [3] is given as greater than 50 µM. For the same compound, the IC50 ([4]; Hepatitis C virus, Huh-7, 48 h) was 11.2 µM, the “SI (selectivity index)” value [4] was greater than 4.46 and the inhibition at 50 µM (HCV NS3/4A protease) was 77.9%.
For Cc1ccc(O)c(/C=N/NC(=O)C2C(=O)NCC2c2ccccc2)c1 (stereo not shown) [Compound 3], the LogP [1] is given as 2.75, the LogS [2] is given as −3.69 and the CC50 at 48 h [3] is given as greater than 50 µM. The IC50 ([4]; Hepatitis C virus, Huh-7, 48 h) was 13.4 µM and the “SI (selectivity index)” value [4] was greater than 3.73.
For COc1ccc(/C=N/NC(=O)c2ccc(O)cc2O)cc1O [Compound 4], the LogP [1] is given as 2.2, the LogS [2] is given as −2.48 and the CC50 at 48 h [3] is given as greater than 50 µM. The IC50 ([4]; Hepatitis C virus, Huh-7, 48 h) was 15.3 µM, the “SI (selectivity index)” value [4] was greater than 3.27 and the inhibition at 50 µM (HCV NS3/4A protease) was 56.9%.
For COc1cccc(/C=N/NC(=O)c2cc3ccccc3nc2C)c1O [Compound 5], the LogP [1] is given as 3.17, the LogS [2] is given as −4.05 and the CC50 at 48 h [3] is given as greater than 50 µM. The IC50 ([4]; Hepatitis C virus, Huh-7, 48 h) was 3 µM and the IC50 [4] was 3.01 µM.
In the case of O=C(CSc1nnc(CNc2ccccc2)n1-c1ccc(Cl)cc1Cl)N/N=C/c1c2ccccc2cc2ccccc12 [Compound 6], the LogP [1] is given as 7.08, the CC50 at 48 h [3] is given as 14.8 µM and the IC50 ([4]; Hepatitis C virus, Huh-7, 48 h) is given as 5.04 µM. For the same compound, the “SI (selectivity index)” value [4] was 2.94 and the inhibition at 50 µM (HCV NS3/4A protease) was 48.1%.
In the case of CCC(C)c1ccc(-c2cc(C(=O)N/N=C/c3cccnc3)c3ccccc3n2)cc1 (stereo not shown) [Compound 7], the LogP [1] is given as 5.84, the LogS [2] is given as −5.53 and the CC50 at 48 h [3] is given as 11.8 µM. For the same compound, the IC50 ([4]; Hepatitis C virus, Huh-7, 48 h) was 4.14 µM, the “SI (selectivity index)” value [4] was 2.85 and the inhibition at 50 µM (HCV NS3/4A protease) was 64.3%.
In the case of NC(=S)N/N=C/c1cccc(O)c1O [Compound 8], the LogP [1] is listed as 1.51, the LogS [2] is listed as −1.89 and the CC50 at 48 h [3] is listed as 1.12 µM. For the same compound, the IC50 ([4]; Hepatitis C virus, Huh-7, 48 h) was 6.23 µM and the “SI (selectivity index)” value [4] was 0.18.
In the case of NC(=S)N/N=C/c1ccc(O)c(O)c1 [Compound 9], the LogP [1] is listed as 1.53, the LogS [2] is listed as −1.03 and the inhibition at 50 µM (HCV NS3/4A protease) is listed as 33.7%.
For O=C1c2ccccc2C(=O)N1/N=C/c1cccc(O)c1O [Compound 10], the LogP [1] is listed as 2.18, the LogS [2] is listed as −2.5 and the CC50 at 48 h [3] is listed as greater than 50 µM. The IC50 ([4]; Hepatitis C virus, Huh-7, 48 h) was 7.07 µM and the “SI (selectivity index)” value [4] was greater than 7.07.
In the case of C=CCc1cccc(/C=N/c2ccc(OC)cc2)c1O [Compound 11], the LogP [1] is listed as 4.43, the LogS [2] is listed as −4.16 and the CC50 at 48 h [3] is listed as greater than 50 µM. The IC50 ([4]; Hepatitis C virus, Huh-7, 48 h) was less than 10 µM and the IC50 [4] was 5.1 µM and 5.14 µM.
For Oc1ccc2cc(Br)ccc2c1/C=N/c1nc[nH]n1 [Compound 12], the LogP [1] is listed as 3.23, the LogS [2] is listed as −2.67 and the CC50 at 48 h [3] is listed as greater than 50 µM. The IC50 ([4]; Hepatitis C virus, Huh-7, 48 h) was 16.1 µM, the “SI (selectivity index)” value [4] was greater than 3.11 and the inhibition at 50 µM (HCV NS3/4A protease) was 53%.
For COc1ccc(-c2cc(C(=O)Nc3ccc(S(=O)(=O)Nc4nccs4)cc3)c3ccccc3n2)c(OC)c1 [Compound 14], the LogP [1] is listed as 5.1, the LogS [2] is listed as −7.55 and the CC50 at 48 h [3] is listed as greater than 50 µM. For the same compound, the IC50 ([4]; Hepatitis C virus, Huh-7, 48 h) was 20.7 µM and the “SI (selectivity index)” value [4] was greater than 2.42.
For CCCCC(CC)C(=O)Nc1nnc(Cc2ccc(OC)cc2)s1 (stereo not shown) [Compound 15], the LogP [1] is given as 4.57, the LogS [2] is given as −5.64 and the CC50 at 48 h [3] is given as greater than 50 µM. For the same compound, the IC50 ([4]; Hepatitis C virus, Huh-7, 48 h) was 28.2 µM, the “SI (selectivity index)” value [4] was greater than 1.77 and the inhibition at 50 µM (HCV NS3/4A protease) was 41.8%.
In the case of O=C(COC(=O)c1cccc(N2C(=O)C3C4c5ccccc5C(c5ccccc54)C3C2=O)c1)c1ccc(Br)cc1 (stereo not shown) [Compound 16], the LogP [1] is given as 4.48, the LogS [2] is given as −8.04 and the CC50 at 48 h [3] is given as greater than 50 µM. For the same compound, the IC50 ([4]; Hepatitis C virus, Huh-7, 48 h) was 9.42 µM and the “SI (selectivity index)” value [4] was greater than 5.31.
